Laboratory results reported in publication PMC11417994, “Cyclohexanediamine Triazole (CHDT) Functionalization Enables Labeling of Target Molecules with Al^18F/^68Ga/^111In” (Bioconjugate Chemistry, 2024).
Several values for one entry are separate records, joined by “and”; a condition that tells them apart may be missing. Equal entries are not always repeated. Each block holds one compound with its values, some of them ahead of it.

Tests used:
PSMA [1] = target: T1, PSMA (Homo sapiens, UniProt Q04609); assay: Competition binding assay, LNCaP cell homogenates, radioligand [177Lu]Lu-PSMA-617; conditions: nonlabeled compounds; [177Lu]Lu-PSMA-617 12 nM; 37 °C, 60 min; Table 2 mean (SEM), Table S3 individual experiments and mean
T1 construct: Detection of endogenous PSMA expression in LNCaP and PC3 cells relative to β-actin expression by Western; host or cells: LNCaP human prostate carcinoma cells (monolayer, spheroids or Potter-Elvehjem homogenates)
Experimental: The binding affinity of the nonlabeled CHDT-PSMA-1/2/3, PSMA-1007, PSMA-617, and KuE was assessed in competition binding assays using LNCaP cell homogenates (∼1 × 10^6 cells/mL using Potter-Elvehjem) and the radioligand [^177Lu]Lu-PSMA-617 (n = 5 for CHDT-PSMA-1; n = 4 for CHDT-PSMA-2/3; n = 2 for PSMA-1007; n = 8 for PSMA-617; n = 6 for KuE). […] The assays were performed in a final volume of 200 μL. The incubation was stopped by washing the homogenate with cold PBS four times using a filter (Whatman GF/C, 90 min presoaked in 0.3% polyethylenimine) in a cell harvester (Brandel, USA). The radioactivity bound to the filter was measured in a gamma counter. Filter binding was determined for adjacent samples without cell homogenate. The experiments were performed two to four times in triplicates or quadruplicates. Inhibitory constants (Ki) were derived from nonlinear regression according to the model of “One site – Fit Ki” as implemented in GraphPad Prism 10. The Kd value of [^177Lu]Lu-PSMA-617 was determined in saturation binding assays using LNCaP cell homogenates to be 15.2 (±2.1) nM.

PSMA [2] = target: T1, PSMA; assay: Saturation binding (surface-bound and internalized), intact LNCaP cells as monolayer
Source text: (§1) In addition to assessing the binding affinities for nonlabeled CHDT-PSMA-1/2/3, we sought to characterize the saturation binding of the Al^18F-, ^68Ga-, and ^111In-labeled compounds using LNCaP cells cultured in monolayers and as spheroids. The saturation binding curves for Al[^18F]F-CHDT-PSMA-1/2/3 are depicted in Figure 3, while the graphs for [^18F]PSMA-1007 and ^68Ga- and ^111In-labeled CHDT-PSMA-1/2/3 can be found in Figures S7–S9 in the Supporting Information. The binding parameters (Kd and Bmax) for Al[^18F]F-CHDT-PSMA-1/2/3 and [^18F]PSMA-1007 are summarized in Table 3 (for the ^68Ga- and ^111In-labeled compounds see Tables S4 and S5 in the Supporting Information). For the saturation binding assays, we recorded surface-bound radioligand (named “binding”), which refers to bound radioligand that can be removed by acid wash, and internalized or acid-resistant radioligand (named “internalization”), which refers to radioligand that remains cell-bound after acid wash. Consequently, two saturation binding plots were obtained and two sets of binding parameters (Kd/Bmax and Kd,int/Bmax,int) were derived.
(§2) For saturation assays in well plates, monolayers of LNCaP (sowing 5 × 10^4 cells/well in 48-well plates 2 days before the assay), as well as LNCaP spheroids were incubated with radiolabeled CHDT-PSMA-1/2/3 and PSMA-1007 (0.2 nM to 100 nM) with adjacent samples receiving KuE (0.8 mM) at 37 °C for 2 h. The number of experiments can be derived from the data in the Tables S4, S5, and S7 in the Supporting Information. After removing the incubation medium and washing of cells with ice-cold PBS (containing Mg^2+ and Ca^2+) the surface-bound activity was stripped with 4 °C cold acid-wash buffer (0.2 M glycine, 0.15 M NaCl, pH 3.0) for 10 min. The acid wash buffer was transferred from the wells to measuring tubes, as was the PBS buffer after washing once. Cytosolic activity (internalized radioligand) was determined after treatment with cell lysis buffer (1% SDS in 0.1 M NaOH) at 37 °C for 30 min. Cell surface and cytosolic activity were measured separately in a gamma counter. Time-depending internalization assays were performed only with cells in monolayer. The incubation (radioligand concentration 13 nM) for these assays was terminated after 10 min, 1 and 3 h, with ^111In and ^177Lu additionally after 24 and 48 h at 37 °C, respectively. During the internalization assays adjacent samples received KuE (0.8 mM) for PSMA blocking, methyl-β-cyclodextrin (MβCD; 3 mM) or KuE together with MβCD, 1 h before radioligand application. The number of experiments can be derived from the data of Figure S11 and associated table and from Table S8 in the Supporting Information.
(§3) Dissociations constants (Kd and Kd,int), as well as maximal binding capacities (Bmax and Bmax,int), were derived from specific binding data by nonlinear regression according to the model of “One site-specific binding” as implemented in GraphPad Prism 10. Protein content was determined using the bicinchoninic acid protein assay kit (Pierce, Thermo Scientific) to calculate the binding capacities in pmol/mg and for the time-depending internalization the internalized percent of administrated dose per μg protein (% AD/μg protein).

PSMA [3] = target: T1, PSMA; assay: Time-depending internalization assay, LNCaP cells as monolayer; type: cell-based; conditions: individual experiments; for specific internalization in the presence of MβCD: MβCD 3 mM; for specific internalization: radioligand 13 nM
Experimental: as §2, §3

LNCaP tumor xenograft = assay: Small animal PET imaging, LNCaP tumor xenograft mouse model; type: in vivo, mice
Experimental: All animal experiments were performed in accordance with the German Animal Welfare regulations and were approved by the local ethics committee for animal experiments (DD24.1-51-31/449/49, Oct 26, 2018). A PSMA-positive prostate cancer xenograft model was generated by subcutaneous injection of human LNCaP cells into the right shoulder of 8–12 week-old male nude mice (Rj:NMRI-Foxn1^nu/nu, Janvier Laboratories, Le Genest-Saint-Isle, France). Imaging studies were performed when subcutaneous tumors reached a diameter of at least 6 mm. General anesthesia of the animals was induced and maintained by inhalation of 10% (v/v) desflurane in 30/70% (v/v) oxygen/air. Animals were continuously warmed at 37 °C during anesthesia.
Positron emission tomography (PET) was performed in vivo using the nanoScan PET/CT scanner (Mediso Medical Imaging Systems, Budapest, Hungary), especially suited for small animals. Each animal received 8–12 MBq of the reference compound [^18F]PSMA-1007 or the radioligands Al[^18F]F-CHDT-PSMA-1/2/3 in phosphate-buffered saline by intravenous injection via a tail vein catheter. At the time of injection, molar activities and radiochemical purities of the compounds were as follows: [^18F]PSMA-1007 (15 MBq/nmol, >99%); Al[^18F]F-CHDT-PSMA-1 (10 MBq/nmol, 99%); Al[^18F]F-CHDT-PSMA-2 (6.3 MBq/nmol, 98%); Al[^18F]F-CHDT-PSMA-3 (4.5 MBq/nmol, >99%). Specificity of target binding was assessed by blocking PSMA binding sites with 2-phosphonomethyl pentanedioic acid (2-PMPA), administered simultaneously with the radioligand at a dose of 50 mg/kg. With injection of the radioligand, emission of the annihilation photons was recorded continuously in coincidence mode of 1:5 for 120 min. A corresponding CT image was acquired with each PET scan and used for attenuation correction and anatomical referencing. From three-dimensional list mode data, events within the energy window of 400–600 keV were extracted and sorted into 36 time frames (f1–f36) with a sequence of 15 × 10 s, 5 × 30 s, 5 × 60 s, 4 × 300 s, 3 × 600 s, and 4 × 900 s. For each time frame, a PET image was reconstructed with the three-dimensional (3D) Tera-Tomo algorithm, with a voxel size of 0.4 mm, applying corrections for random events, scattering, attenuation, and decay.
Three-dimensional regions of interest (ROIs) were defined within an image series of selected time frames using fixed intensity thresholds for delineation of organs: bones at knee joint position (0–120 min, 55%), cardiac blood volume (0–1.7 min, 70%), gall bladder (0–120 min, 39%), intestine (0–120 min, 5%), kidneys (0–2.5 min, 15%), liver (0–2.5 min, 55%), muscle (0–120 min, 0%), parotid glands (0–120 min, 39%), tumor (0–120 min, 39%), and urinary bladder (0–120 min, 5%). Activity concentrations in tissue were determined as standardized uptake value (SUV = [MBq detected activity/mL tissue]/[MBq injected activity/g body weight]) and expressed as SUVmean (ROI-averaged). Time-activity curves were generated and analyzed using Prism (GraphPad Software, San Diego CA, USA). […] Areas under curves (AUC) were calculated using the trapezoid rule. Statistical significance of mean differences was tested by analysis of variance (ANOVA) using the Šidák test.

PSMA [4] = target: T1, PSMA; assay: Saturation binding (surface-bound and internalized), LNCaP spheroids
Source text: as §1
For the formation of spheroids, the LNCaP cells were incubated overnight in a normal culture bottle with biocompatible nanoparticles ([…] with 80 μL of a suspension consisting of Au, Fe2O3 and poly-L-lysine called Nanoshuttle, Greiner Bio-One GmbH, Germany). After harvesting and cell counting, 10,000 cells/well of a 24-well plate or 7,000 cells/well of a 96-well plate (cell-repellent plates) were sown. The well plates were placed on matching plates with button magnets (Greiner Bio-One GmbH, Germany). The magnetized LNCaP cells formed suitable spheroids that were used after 5 d.
as §2, §3

[5] = Al^18F-labeled conjugate or [18F]PSMA-1007, surface-bound
[6] = SUVmean ratio 105–120 min after injection, mean ± SD
[7] = Al^18F-labeled conjugate or [18F]PSMA-1007, acid-resistant fraction, read-out: Kd,int (internalization)

T1 sequence (Q04609 whole entry): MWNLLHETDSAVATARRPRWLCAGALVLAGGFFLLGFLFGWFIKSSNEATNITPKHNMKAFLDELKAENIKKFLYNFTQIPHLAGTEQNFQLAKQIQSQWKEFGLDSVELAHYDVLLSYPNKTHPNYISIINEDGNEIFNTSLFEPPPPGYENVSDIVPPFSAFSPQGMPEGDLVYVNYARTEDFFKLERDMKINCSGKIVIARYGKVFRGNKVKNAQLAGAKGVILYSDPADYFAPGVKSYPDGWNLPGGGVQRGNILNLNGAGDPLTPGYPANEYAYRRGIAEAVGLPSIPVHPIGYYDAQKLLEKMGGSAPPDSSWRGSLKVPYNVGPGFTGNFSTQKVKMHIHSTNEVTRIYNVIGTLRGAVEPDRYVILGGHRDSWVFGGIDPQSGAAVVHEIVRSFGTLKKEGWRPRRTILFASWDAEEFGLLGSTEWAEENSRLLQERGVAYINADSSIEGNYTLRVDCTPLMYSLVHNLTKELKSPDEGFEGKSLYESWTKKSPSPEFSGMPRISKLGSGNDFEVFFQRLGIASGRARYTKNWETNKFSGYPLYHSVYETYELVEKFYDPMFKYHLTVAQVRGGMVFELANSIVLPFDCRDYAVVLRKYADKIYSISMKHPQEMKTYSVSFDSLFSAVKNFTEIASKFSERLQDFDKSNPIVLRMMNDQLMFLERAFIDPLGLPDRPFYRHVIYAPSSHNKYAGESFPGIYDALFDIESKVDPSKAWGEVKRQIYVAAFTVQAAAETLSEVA

- Ki (PSMA [1]): 4.1 nM and 2.59 nM and 5.55 nM and 5.49 nM and 4.57 nM and 3.33 nM and 4.02 nM and 3.71 nM and 4.2 nM
Compound: O=C(O)CC[C@H](NC(=O)N[C@@H](CCCCNC(=O)[C@H](Cc1ccc2ccccc2c1)NC(=O)[C@H]1CC[C@H](CNC(=O)CN2CCN(CC(=O)O)CCN(CC(=O)O)CCN(CC(=O)O)CC2)CC1)C(=O)O)C(=O)O [PSMA-617]

Compound: O=C(O)CC[C@H](NC(=O)N[C@@H](CCCCNC(=O)[C@H](Cc1ccc2ccccc2c1)NC(=O)c1ccc(CNC(=O)[C@H](CCC(=O)O)NC(=O)[C@H](CCC(=O)O)NC(=O)c2ccc(F)nc2)cc1)C(=O)O)C(=O)O [[^18F]PSMA-1007]
- Kd (PSMA [2]; Al^18F-labeled conjugate or [18F]PSMA-1007, surface-bound, 37 °C, 2 h, read-out: Kd (binding)): 5.4 nM

Compound: O=C(O)CC[C@H](NC(=O)N[C@@H](CCCCNC(=O)[C@H](Cc1ccc2ccccc2c1)NC(=O)c1ccc(CNC(=O)[C@H](CCC(=O)O)NC(=O)[C@H](CCC(=O)O)NC(=O)c2ccc([18F])nc2)cc1)C(=O)O)C(=O)O [[^18F]PSMA-1007]
- Bmax (binding) (PSMA [2]; [5]): 1.11 pmol/mg
- specific internalization in the presence of MβCD (PSMA [3]; 10 min): 0.02232 % AD/µg protein and 0.008008 % AD/µg protein
- specific internalization (PSMA [3]; 10 min): 0.03696 % AD/µg protein and 0.02616 % AD/µg protein
- specific internalization in the presence of MβCD (PSMA [3]; 1 h): 0.1091 % AD/µg protein and 0.02833 % AD/µg protein and 0.1038 % AD/µg protein
- specific internalization (PSMA [3]; 1 h): 0.07765 % AD/µg protein and 0.1071 % AD/µg protein and 0.1171 % AD/µg protein
- specific internalization in the presence of MβCD (PSMA [3]; 3 h): 0.04566 % AD/µg protein and 0.1478 % AD/µg protein and 0.1495 % AD/µg protein
- specific internalization (PSMA [3]; 3 h): 0.2295 % AD/µg protein and 0.1701 % AD/µg protein and 0.1562 % AD/µg protein
- average SUVmean in bone tissue (LNCaP tumor xenograft; 120 min p.i.): 0.21
- Tu/Blood (LNCaP tumor xenograft; [6]): 14 ± 3.0
- Tu/Bone (LNCaP tumor xenograft; [6]): 18 ± 7.9
- Tu/Kidney (LNCaP tumor xenograft; [6]): 0.5 ± 0.2
- Tu/Liver (LNCaP tumor xenograft; [6]): 16 ± 6.8
- Tu/Muscle (LNCaP tumor xenograft; [6]): 20 ± 6.9

- Ki (PSMA [1]): 2 nM and 1.39 nM and 1.7 nM
- Bmax,int (internalization) (PSMA [2]; Al^18F-labeled conjugate or [18F]PSMA-1007, acid-resistant fraction): 1.02 ± 0.21 pmol/mg
- Kd (PSMA [2]; [7]): 10.1 ± 5.9 nM
- Bmax (binding) (PSMA [2]; [5]): 1.11 ± 0.06 pmol/mg
- Kd (PSMA [4]; [7]): 25.8 ± 18.6 nM
- Kd (PSMA [4]; Al^18F-labeled conjugate or [18F]PSMA-1007, surface-bound, read-out: Kd (binding)): 12.9 ± 1.2 nM
Compound: PSMA-1007 [reference compound]
